Test results as given in ChEMBL document CHEMBL1201862, “PubChem BioAssay data set” (2004).
Activity calls are given as the source filed them.

What was measured:
H9c2 = experiment: cells; format: functional, cell-based; settings: Rattus norvegicus, H9c2, Myocardium;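 also: confirmatory concentration-response retest of ultra-high-throughput screening hits for modulation of myocardial damage; cell death induced by hydrogen peroxide oxidative stress; compound pretreatment for 60 min then peroxide exposure for 2 h; potency is for protecting the cells against peroxide damage rather than for killing them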
Vero = experiment: cells; format: functional; settings: Chlorocebus sabaeus
[1] = growth suppression of PTEN-null colon cells, dose response, cell-based, HCT116 PTEN knockout (AID 1047); format: functional;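 also: HCT116 colon tumor cells with PTEN knocked out; cells exposed to compound for 60 hours before readout; potency for loss of cell viability measured by luminescence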
[2] = growth suppression of beta-catenin-knockout colon cells, dose response, cell-based, HCT116, human colon tumor (AID 1045); format: functional;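 also: HCT116 colon tumor cells with beta catenin knocked out; cells exposed to compound for 60 hours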
[3] = molecular target: T1, Rac GTPase-activating protein 1 (Homo sapiens, UniProt Q9H0H5); experiment: MgcRacGAP GTPase-activating activity inhibitors, confirmation, biochemical, ADP Hunter fluorescence, primary and confirmatory (AID 624330); format: functional
T1 sequence (Q9H0H5 whole entry): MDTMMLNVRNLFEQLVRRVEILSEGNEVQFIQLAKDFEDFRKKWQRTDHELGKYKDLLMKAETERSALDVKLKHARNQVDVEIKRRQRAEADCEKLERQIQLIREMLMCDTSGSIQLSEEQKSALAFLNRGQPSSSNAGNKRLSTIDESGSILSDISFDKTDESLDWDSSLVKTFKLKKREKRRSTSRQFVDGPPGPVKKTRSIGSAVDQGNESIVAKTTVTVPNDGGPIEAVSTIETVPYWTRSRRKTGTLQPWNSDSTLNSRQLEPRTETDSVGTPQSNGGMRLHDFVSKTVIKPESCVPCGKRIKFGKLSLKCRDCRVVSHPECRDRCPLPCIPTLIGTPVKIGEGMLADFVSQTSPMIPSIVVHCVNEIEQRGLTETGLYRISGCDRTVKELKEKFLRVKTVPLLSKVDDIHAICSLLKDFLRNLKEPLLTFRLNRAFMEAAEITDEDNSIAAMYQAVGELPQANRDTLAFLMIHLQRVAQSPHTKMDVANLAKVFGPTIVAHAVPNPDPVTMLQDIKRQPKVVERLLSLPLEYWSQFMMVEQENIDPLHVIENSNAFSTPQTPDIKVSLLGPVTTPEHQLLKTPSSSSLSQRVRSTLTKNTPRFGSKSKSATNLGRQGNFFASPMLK

[4] = molecular target: FAD-linked sulfhydryl oxidase ALR (Homo sapiens, UniProt P55789); experiment: inhibitors of human ALR sulfhydryl oxidase, dose response, biochemical, H2O2 detection, luminescence, cherry-pick (AID 493248)
cells = format: functional
[5] = molecular target: T2, Ubiquitin-conjugating enzyme E2 N (Homo sapiens, UniProt P61088); format: functional;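 also: Dose-response confirmation in a TR-FRET assay detecting UBC13-driven polyubiquitin chain formation, inhibition measured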
T2 sequence (P61088 whole entry): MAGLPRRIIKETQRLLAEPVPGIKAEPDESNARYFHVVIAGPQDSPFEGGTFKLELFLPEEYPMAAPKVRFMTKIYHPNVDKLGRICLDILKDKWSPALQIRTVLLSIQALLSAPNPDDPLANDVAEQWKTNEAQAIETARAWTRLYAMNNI

[6] = molecular target: T3, Heat shock factor protein 1 (Mus musculus, UniProt P38532); experiment: inhibition of MG132-induced HSE-luciferase signal, confirmation, cell-based, NIH3T3, luminescence, dose retest (AID 2382); format: functional;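 also: NIH3T3 fibroblasts with HSF1-driven luciferase reporter stressed by proteasome inhibitor MG132; luminescence from HSF1-driven luciferase expression after 8 hours of MG132 stress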
T3 sequence (P38532 whole entry): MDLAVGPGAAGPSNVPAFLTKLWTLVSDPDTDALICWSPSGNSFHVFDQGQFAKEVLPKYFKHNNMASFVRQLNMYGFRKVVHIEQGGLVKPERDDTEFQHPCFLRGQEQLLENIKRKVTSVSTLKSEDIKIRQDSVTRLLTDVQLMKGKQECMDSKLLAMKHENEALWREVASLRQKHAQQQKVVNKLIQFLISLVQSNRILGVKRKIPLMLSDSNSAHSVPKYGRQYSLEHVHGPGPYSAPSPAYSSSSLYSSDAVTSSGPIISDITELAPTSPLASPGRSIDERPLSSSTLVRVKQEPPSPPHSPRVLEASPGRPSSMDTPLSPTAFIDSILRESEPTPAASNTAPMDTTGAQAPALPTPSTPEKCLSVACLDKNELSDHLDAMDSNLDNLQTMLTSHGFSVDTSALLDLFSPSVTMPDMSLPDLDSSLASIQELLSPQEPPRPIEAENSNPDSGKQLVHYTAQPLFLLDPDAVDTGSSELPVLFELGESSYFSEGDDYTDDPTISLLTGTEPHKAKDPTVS

[7] = molecular target: T3, Heat shock factor protein 1; experiment: HSF1 potentiators in luciferase reporter cells, confirmation, cell-based, NIH3T3, luminescence, dose retest (AID 435004); format: functional;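 also: stress induced by proteasome inhibitor MG132 added 30 min after compound; luciferase reporter driven by HSF1 response element in NIH3T3 cells; actives raise luminescence as potentiators of the MG132 stress response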
[8] = HEp-2 cell cytotoxicity, dose response, cytotoxicity control for RSV inhibitor project, HTS (AID 2410); format: functional; settings: human respiratory syncytial virus
[9] = Luminescence Cell-Based Dose Retest to Confirm Inhibitors of Cancer Stem Cells. [Related pubchem assays (depositor defined):AID2717, AID2721]; format: functional; settings: Homo sapiens
INS1 = experiment: beta cell apoptosis inhibitors, cytokine rescue, dose response, luminescence, retest (AID 449756); format: functional, cell-based; settings: Rattus norvegicus;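 also: cell death triggered by IL-1 beta plus TNF-alpha plus IFN-gamma mixture; protective hits raise ATP signal compared with cytokine alone wells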
Cytochrome P450 2C9 = Cytochrome P450 2C9 (Homo sapiens, UniProt P11712)
Large T antigen = Large T antigen (Simian virus 40, UniProt P03070); format: functional, Betapolyomavirus macacae;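 also: Confirmatory-stage PubChem screen for compounds that inhibit SV40 T antigen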
[10] = molecular target: T4, Polyadenylate-binding protein 1 (Homo sapiens, UniProt P11940); experiment: PABP1 MLLE–PAM2 interaction inhibitors, dose response, miRNA deadenylation inhibitor project, biochemical, fluorescence polarization, Cy5-PAM2 peptide, secondary (AID 602260); format: functional; settings: read-out: IC50_Mean
[11] = molecular target: T4, Polyadenylate-binding protein 1; experiment: PABP1 MLLE–PAM2 binding inhibitor potency, dose response, biochemical, fluorescence polarization, FITC-PAM2 peptide (AID 602259); format: functional; settings: read-out: IC50_Mean
[12] = system: Streptococcus sp. 'group A'; experiment: growth inhibition of control SK(-) GAS strain, dose response, counter-screen for streptokinase expression inhibitor project, luminescence, kanamycin, BacTiterGlo, confirmation (AID 1900); format: functional, organism-based
Streptococcus = experiment: Group A Streptococcus viability loss, dose response, counter-screen for streptokinase expression inhibitor project, luminescence, BacTiterGlo (AID 1915); format: functional, organism-based;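 also: potency for reduction of bacterial viability or growth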

FAD-linked sulfhydryl oxidase ALR, sequence (P55789 whole entry): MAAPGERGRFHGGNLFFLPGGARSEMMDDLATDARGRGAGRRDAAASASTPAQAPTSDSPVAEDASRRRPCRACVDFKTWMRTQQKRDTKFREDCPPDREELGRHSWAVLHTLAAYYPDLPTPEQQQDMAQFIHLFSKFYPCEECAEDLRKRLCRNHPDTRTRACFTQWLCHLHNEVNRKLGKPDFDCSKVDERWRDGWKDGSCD
Large T antigen, sequence (P03070 whole entry): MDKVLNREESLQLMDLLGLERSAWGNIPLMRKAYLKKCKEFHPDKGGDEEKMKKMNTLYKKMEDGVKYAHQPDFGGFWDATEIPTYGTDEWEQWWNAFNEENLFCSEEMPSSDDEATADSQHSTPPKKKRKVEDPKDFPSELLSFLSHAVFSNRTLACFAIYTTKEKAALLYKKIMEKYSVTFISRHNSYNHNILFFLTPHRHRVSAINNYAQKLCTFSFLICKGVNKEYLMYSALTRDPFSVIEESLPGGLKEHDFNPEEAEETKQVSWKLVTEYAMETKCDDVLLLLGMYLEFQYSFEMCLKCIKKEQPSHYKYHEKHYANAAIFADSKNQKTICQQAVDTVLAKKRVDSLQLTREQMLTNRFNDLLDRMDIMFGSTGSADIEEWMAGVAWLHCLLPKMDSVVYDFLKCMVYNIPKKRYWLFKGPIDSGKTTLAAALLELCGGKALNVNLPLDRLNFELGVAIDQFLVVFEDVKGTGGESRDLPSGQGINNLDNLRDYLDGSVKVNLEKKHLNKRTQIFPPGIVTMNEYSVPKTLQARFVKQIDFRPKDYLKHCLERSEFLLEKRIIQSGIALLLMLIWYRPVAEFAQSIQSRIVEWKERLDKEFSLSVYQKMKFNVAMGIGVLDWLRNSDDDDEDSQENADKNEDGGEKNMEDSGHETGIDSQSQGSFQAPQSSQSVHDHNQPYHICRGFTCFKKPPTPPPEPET
T4 sequence (P11940 whole entry): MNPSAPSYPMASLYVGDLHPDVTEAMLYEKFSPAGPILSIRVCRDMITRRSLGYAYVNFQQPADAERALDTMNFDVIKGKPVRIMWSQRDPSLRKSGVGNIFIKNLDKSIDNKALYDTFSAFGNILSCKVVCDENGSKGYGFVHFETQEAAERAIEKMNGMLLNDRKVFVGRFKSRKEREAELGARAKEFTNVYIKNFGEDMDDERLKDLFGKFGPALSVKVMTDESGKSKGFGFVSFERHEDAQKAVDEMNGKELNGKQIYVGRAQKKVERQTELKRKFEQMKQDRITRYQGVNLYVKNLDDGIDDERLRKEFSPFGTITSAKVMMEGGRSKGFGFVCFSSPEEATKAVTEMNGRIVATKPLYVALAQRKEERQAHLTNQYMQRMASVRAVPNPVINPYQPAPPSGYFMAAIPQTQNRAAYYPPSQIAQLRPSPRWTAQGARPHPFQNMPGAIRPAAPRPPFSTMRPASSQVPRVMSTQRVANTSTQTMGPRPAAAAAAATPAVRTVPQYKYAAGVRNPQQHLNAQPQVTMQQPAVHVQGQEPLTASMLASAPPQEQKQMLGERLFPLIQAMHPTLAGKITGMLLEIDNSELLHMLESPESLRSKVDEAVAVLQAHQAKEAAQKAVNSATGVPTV
Cytochrome P450 2C9, sequence (P11712 whole entry): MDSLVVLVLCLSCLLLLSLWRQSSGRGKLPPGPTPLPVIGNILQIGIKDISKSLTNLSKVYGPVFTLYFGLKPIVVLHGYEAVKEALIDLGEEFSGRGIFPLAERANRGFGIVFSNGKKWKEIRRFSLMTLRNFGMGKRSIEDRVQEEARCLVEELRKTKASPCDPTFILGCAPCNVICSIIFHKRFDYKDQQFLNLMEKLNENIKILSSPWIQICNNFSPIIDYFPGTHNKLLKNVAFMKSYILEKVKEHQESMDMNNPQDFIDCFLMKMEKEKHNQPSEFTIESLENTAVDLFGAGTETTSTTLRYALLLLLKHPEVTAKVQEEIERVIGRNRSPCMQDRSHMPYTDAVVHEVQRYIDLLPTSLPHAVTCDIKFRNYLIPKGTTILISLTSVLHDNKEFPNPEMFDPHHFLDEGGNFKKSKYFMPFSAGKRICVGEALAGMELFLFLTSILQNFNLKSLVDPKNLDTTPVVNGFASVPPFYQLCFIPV

CCOC(=O)C1CCN(c2cc3c(cc2NC(=O)c2ccc(OC)c(OC)c2)n(C)c(=O)n3C)CC1
IC50 (H9c2): 26.8 µM (active)

O=C1/C(=C/c2ccccc2F)SC(=S)N1CCC(=O)N1CCCCC1CCO (stereo not given)
CC50 (Vero): 25 µM (active)

Cc1ccc(S(=O)(=O)N(C)C)cc1NC(=O)CSc1ncc(C(F)(F)F)cc1Cl
EC50 [1]: 88.7 µM (active)
EC50 [2]: 647 µM (active)

CCOc1cc2c(cc1O)C(=NOC)CC1C2CCC2(C)C(O)CCC12 (stereo not given)
CC50 (Vero): 5.94 µM (active)

CCN(CC)S(=O)(=O)c1ccc(C)c(NC(=O)CN2CCN(C)CC2)c1
IC50 [3]: 118 µM (active)

O=C(COC(=O)Cc1nnc(O)c2ccccc12)Nc1ncc(Cl)cc1Cl
IC50 (H9c2): 15.4 µM (active)

COc1ccccc1NS(=O)(=O)c1ccc(C)c(C(=O)N2CCN(c3ccc(O)cc3)CC2)c1
AC50 [4]: 0.022 µM (active)
IC50 [3]: 24.2 µM (active)

CC(=O)Oc1c(-c2ccco2)oc2ccccc2c1=O
IC50 (cells): 23.2 µM (active)

COC(=O)c1ccc(N)c(NC=C2C(=O)CC(C)(C)CC2=O)c1
IC50 (H9c2): 6.51 µM (active)

CCC(C)[C@H]1CNCCN1CCc1cc(C(F)(F)F)cc(C(F)(F)F)c1 (stereo not given in full)
IC50 [5]: > 20 µM (inactive)

CCc1ccc(/C=N/NC(=O)Cc2cccn2C)cc1
AC50 [4]: 13.4 µM (active)

COCCN(Cc1nc(O)c2ccccc2n1)C(=O)COc1ccccc1-c1ccccc1
CC50 (Vero): > 25 µM (active)

COC(=O)C1=C(C)N(CCc2ccc(OC)cc2)C(=O)C1
IC50 (H9c2): > 79 µM (inactive)

Cc1cc(C(=O)Nc2nnc(-c3ccccc3)s2)no1
AC50 [4]: 18.9 µM (active)

CCOC(=O)C1CCN(Cc2ccc(-c3ccccc3)cc2)CC1
IC50 [3]: 151 µM (active)

Nc1nc2ccc(-c3nc4ccccc4o3)cc2s1
AC50 [4]: 2.44 µM (active)

CCN(CC)C(=O)CC(c1ccc(N(C)C)cc1)c1c(OC)cc(OC)c2ccc(=O)oc12 (stereo not given)
AC50 [4]: 3.89 µM (active)

O=C(Oc1ccc2c(-c3ccccc3)cc(=O)oc2c1)C1CCCCC1
IC50 (H9c2): 34.3 µM (inactive)

CCN1CCN(CCOc2ccc(Br)cc2C)CC1
IC50 [3]: 73.2 µM (active)

CCn1c(S)nnc1-c1ccc2[nH]c(C)c(C)c2c1
EC50 [6]: > 195 µM (not active)
AC50 [4]: 2.49 µM (active)

CCC1(C)Cc2c(sc3nc(NN)n(C)c(=O)c23)CO1 (stereo not given)
IC50 (H9c2): > 79 µM (inactive)

O=C(/C=C/NNC(=O)c1ccccc1)c1ccc(Br)cc1
EC50 [7]: 39.1 µM (active)
IC50 (H9c2): 12.4 µM (active)

CCC1(C)N=C(N)Nc2nc3cc(C)c(C)cc3n21 (stereo not given)
EC50 [7]: > 260 µM (inactive)
AC50 [4]: 4.1 µM (active)

O=C1CCCC2=C1C(c1ccc(Cl)cc1)n1c(s/c(=C\c3ccc4ccncc4c3)c1=O)=N2 (stereo not given)
CC50 [8]: 31.8 µM (active)
EC50 [7]: 146 µM (active)
CC50 (Vero): > 25 µM (active)

Cc1cc2nc(NCCCO)n(CC(=O)c3cc(C(C)(C)C)c(O)c(C(C)(C)C)c3)c2cc1C
AC50 [9]: 3.14 µM (active)
AC50 (INS1): 8.03 µM (active)
IC50 [5]: > 20 µM (inactive)

Cc1ccccc1C1c2[nH]c3ccccc3c2C[C@H]2C(=O)N(c3ccccc3C(=O)NCCCN3CCOCC3)C(=O)N12 (stereo not given in full)
IC50 (H9c2): 15.3 µM (active)

COc1ccc(C(=O)COC(=O)c2ccc(NC(=O)c3ccccc3)cc2)cc1
EC50 [1]: 41.1 µM (active)
AC50 (Cytochrome P450 2C9): 1.41 µM (inconclusive)
EC50 [2]: 49.9 µM (active)

Nc1nc(-c2ccco2)cs1
IC50 (Large T antigen): 79.2 µM (active)

CNC(C)Cc1ccccc1Sc1ccc(O)cc1 (stereo not given)
AC50 (Cytochrome P450 2C9): 28.2 µM (inconclusive)
AC50 [4]: 3.15 µM (active)
IC50 (Large T antigen): 94.4 µM (active)

CC(=O)Nc1ccc(SCCN2CC[C@@H](C(C)(C)C)CCC2=O)cc1
AC50 [4]: 0.25 µM (active)
IC50 [10]: > 66 µM (inactive)
IC50 [11]: > 66 µM (inactive)

CCCCC(=O)Nc1ccc2c3c(cccc13)C(=O)N2CC
IC50 [5]: > 20 µM (inactive)

CCCn1c(SC(C(=O)Nc2cccc(OC)c2)c2ccccc2)nc2ccccc2c1=O (stereo not given)
IC50 (H9c2): > 79 µM (inactive)

O=C(c1ccco1)N1CCN(Cc2cccc([N+](=O)[O-])c2)CC1
IC50 [3]: 127 µM (active)

CCC(/C=C1\Sc2ccc(OC)cc2N1CCCS(=O)(=O)[O-])=C\c1sc2ccc(OC)cc2[n+]1CC
AC50 [4]: 8.75 µM (active)
AC50 (INS1): 3.3 µM (active)

CCCc1cc(C(=O)Nc2ccccc2SC)no1
IC50 (cells): 10.5 µM (active)

O=C(Nc1ccncc1)C1CCN(S(=O)(=O)c2cccc(C(F)(F)F)c2)CC1
IC50 [5]: > 20 µM (inactive)

COc1ccc(S(=O)(=O)N/N=C(/C)c2ccncc2)c(OC)c1
AC50 [4]: 0.832 µM (active)

O=C(NCc1nnc(O)c2ccccc12)C1CC(=O)N(c2ccccc2)C1 (stereo not given)
IC50 (H9c2): > 79 µM (inactive)

COc1ccc(NC(=O)N(C)C[C@H]2Oc3c(NC(=O)Nc4ccc(C(F)(F)F)cc4)cccc3C(=O)N([C@H](C)CO)C[C@@H]2C)cc1
IC50 (H9c2): > 79 µM (inactive)

CN(C)c1ccc(NC(=O)CC2NCCNC2=O)cc1 (stereo not given)
IC50 (Large T antigen): 10.1 µM (active)

COc1cccc(COC(=O)c2sc3nc4n(c(=O)c3c2C)CCC4)c1OC
EC50 [12]: 1.6 µM (active)
EC50 (Streptococcus): 8.48 µM (active)
IC50 (cells): 4.36 µM (active)

COc1ccc(NCCc2ccccn2)cc1
IC50 (Large T antigen): 19.3 µM (active)

CCCC(=O)Nc1nc2ccc(NC(=O)c3ccc(Br)o3)cc2s1
IC50 (H9c2): > 79 µM (inactive)

Nc1cc(CN2C(=O)c3ccccc3C2=O)cc(Cl)c1O
IC50 (Large T antigen): 8.42 µM (active)

COc1ccc(OC(=O)COc2cc(C)ccc2C)cc1
IC50 [3]: 37.7 µM (active)

Nc1ccc2[nH]c(-c3cccs3)nc2c1
IC50 (H9c2): 15.5 µM (active)
IC50 (Large T antigen): 11.9 µM (active)

CCOC(=O)N1CCN(S(=O)(=O)c2ccc(C(=O)Nc3nc4c(s3)CC(C)CC4)cc2)CC1 (stereo not given)
EC50 [1]: 1.25 µM (active)
EC50 [2]: 1.7 µM (active)

CN(C)/N=C/c1ccc(N2CCOCC2)cc1
IC50 [3]: 51.2 µM (active)

CC(C)C(=O)Nc1ccc(O)c(-c2csc(N)n2)c1
IC50 (Large T antigen): 46.3 µM (active)

O=P1(c2ccccc2)Nc2ccccc2N1c1ccccc1 (stereo not given)
IC50 [3]: 28.8 µM (active)

O=C(Nc1ccc(Cl)c(Cl)c1)Oc1ccc(NC(=O)c2ccco2)cc1
IC50 (Large T antigen): > 100 µM (active)

O=C1c2ccccc2C(=O)C12OC2c1ccc(Cl)cc1Cl (stereo not given)
EC50 [1]: 29.6 µM (active)
EC50 [2]: 20.3 µM (active)

CCC(=O)Nc1ccc(SC#N)cc1C
AC50 [4]: 0.497 µM (active)
IC50 [10]: > 66 µM (inactive)
IC50 [11]: > 66 µM (inactive)

Cc1ccc(Nc2c(N)c(=O)oc3ccccc23)cc1
EC50 [1]: 13.6 µM (active)
EC50 [7]: > 260 µM (inactive)
EC50 [2]: 12.3 µM (active)

CC(=O)Nc1ccc(NC(=O)C(C)OC(=O)COc2ccc(Nc3ccccc3)cc2)cc1 (stereo not given)
IC50 [3]: 111 µM (active)
